Laboratory results reported in US11352329B2, “HIV protease inhibitors” (Gilead Sciences, Inc., priority 2017, dated 2022).
Read-outs that look alike come from different tables or passages of the source.

Tests used:
[1] = Liver microsomal stability, human; type: in vitro ADME; conditions: liver microsomes, read-out: Half-lives
Protocol: Test compounds and one control compound (verapamil) were tested in 3 different species in duplicate sets.
Test compound concentration: 1 uM; Protein concentration: 0.5 mg/mL (for dog, rat, and human liver microsomes); Cofactor: NADPH-Regenerating system (NRS) solution; Time-points: 2, 12, 25, 45, and 65 minutes.
Reaction Composition (in Each Incubation Well) Contains:
At an incubation temperature of 37° C., the reaction was started with addition of NADPH Regeneration System, at each time point, 25 uL of the reaction mixture was removed and added to a plate with 225 uL quenching solution (50% MeOH, 25% ACN, 25% H2O, and 200 nM labetalol as internal standard). After plates were vortexed, they were centrifuged for 30 minutes to remove proteins. About 100 μL supernatant was removed to a new plate and diluted with 150 μL water. About 20 μL of the mixture was injected into LC/MS/MS system to monitor the compound's response. In vitro measured t½ was used to calculate Clint values.

[2] = tested on: HIV-1 (IIIB) in MT-4 cells; assay: microbe, parasite or virus in culture; type: cell-based
[3] = Human immunodeficiency virus 1, IIIB, MT4, MT-4 cells

half-life at 1 uM [1] [h]	SMILES	EC50 ([2]; MT-4 cells, read-out: MT4 EC50) [µM]	EC50 [2, 3] [µM]
≥ 6.58	CC(C)(C)C[C@]1(c2ccc(-c3cnn(C(F)F)c3)cc2)NC(=N)N([C@H](COC(=O)N[C@@H]2C[C@H]2C(F)(F)F)c2ccc(Cl)c(-n3ncnc3C(F)F)c2)C1=O (single isomer, unassigned) [Compound 331]		
	[H]/N=C1\N[C@](CC(C)(C)C)(c2ccc(-c3cnn(C(F)F)c3)cc2F)C(=O)N1[C@H](COC(=O)NC1CC1)c1ccc(Cl)c(-c2ncn[nH]2)c1 [Compound 11]	0.0355	
≥ 6.58	CC(C)(C)C[C@]1(c2ccc(-c3cnn(C(F)F)c3)cc2)NC(=N)N([C@H](COC(=O)NC2CC2)c2ccc(Cl)c(-c3nccc(=O)[nH]3)c2)C1=O [Compound 17]		0.556
	CC(C)(C)C[C@]1(c2ccc(-c3cnccn3)cc2)NC(=N)N([C@H](COC(=O)NC2(C(F)(F)F)CC2)c2ccc(Cl)c(-c3ncn[nH]3)c2)C1=O [Compound 26]	0.102	
	CC(C)(C)C[C@]1(c2ccc(-c3cnn(C(F)F)c3)cc2)NC(=N)N([C@H](COC(=O)NC(C)(C)C(F)F)c2ccc(F)c(-c3ncnn3C(F)F)c2)C1=O [Compound 124]		0.0653
	CC(C)(C)C[C@]1(c2ccc(-c3cnn(C4CC4)c3)cc2)NC(=N)N([C@H](COC(=O)NC2(C(F)(F)F)CC2)c2ccc(Cl)c(-c3ncnn3C(F)F)c2)C1=O [Compound 164]		0.0165
	CC(C)(C)C[C@]1(c2ccc(-c3cn(C4CC4)nn3)cc2)NC(=N)N([C@H](COC(=O)NC2(C(F)(F)F)CC2)c2ccc(Cl)c(-n3ncnc3C(F)F)c2)C1=O [Compound 232]		0.0182
	CC(C)(C)C[C@]1(c2ccc(-c3cnn(C(F)F)c3)c(F)c2)NC(=N)N([C@H](COC(=O)NCC(C)(F)F)c2ccc(Cl)c(-n3ncnc3C(F)F)c2)C1=O [Compound 299]	0.013	
	CC(C)(C)C[C@]1(c2ccc3ncc(Br)cc3c2)NC(=N)N([C@H](COC(=O)NC(C)(C)C(F)F)c2ccc(Cl)c(-n3ncnc3C(F)F)c2)C1=O [Compound 327]		0.0307
≥ 6.58	CC(C)(C#N)C[C@]1(c2ccc(-c3cnn(C(F)F)c3)cc2)NC(=N)N([C@H](COC(=O)NC2(C(F)(F)F)CC2)c2ccc(Cl)c(-n3ncnc3C(F)F)c2)C1=O [Compound 336]		0.0747
	CC(C)(CC#N)C[C@]1(c2ccc(-c3cnn(C4CC4)n3)cc2)NC(=N)N([C@H](COC(=O)NC2(C(F)(F)F)CC2)c2ccc(Cl)c(-n3ncnc3C(F)F)c2)C1=O [Compound 362]		0.0364
	CC(C)(C)C[C@]1(c2ccc(-c3cnn(C(C)(C)C)n3)cc2)NC(=N)N([C@H](COC(=O)NC2(C(F)(F)F)CC2)c2ccc(Cl)c(-n3ncnc3C(F)F)c2)C1=O [Compound 371]		0.0267
	CC(C)(C)C[C@]1(c2ccc(-c3cnn(C(F)F)c3)cc2)NC(=N)N([C@H](COC(=O)NC2(C(F)(F)F)CC2)c2ccc(-n3ncnc3C(F)F)c(F)c2)C1=O [Compound 379]		0.134
≥ 6.58	CC(C)(C)C[C@]1(c2ccc(-c3cnn(C(F)F)c3)cc2)NC(=N)N([C@H](COC(=O)NC2(C(F)(F)F)CC2)c2ccc(F)c(-n3ncnc3C(F)F)c2)C1=O [Compound 380]		0.0292
0.433 to 1.78	COC(=O)N[C@H](C(=O)N[C@@H](Cc1ccccc1)[C@@H](O)CN(Cc1ccc(-c2ccccn2)cc1)NC(=O)[C@@H](NC(=O)OC)C(C)(C)C)C(C)(C)C [atazanavir, methyl N-[(2S)-1-[2-[(2S,3S)-2-hydroxy-3-[[(2S)-2-(methoxycarbonylamino)-3,3-dimethylbutanoyl]amino]-4-phenylbutyl]-2-[(4-pyridin-2-ylphenyl)methyl]hydrazinyl]-3,3-dimethyl-1-oxobutan-2-yl]carbamate, reference compound]		
